Consider 21 compounds from US8835428B2, “Diacylglycerol acyltransferase inhibitors” (Piramal Enterprises Limited, priority 2008, dated 2014).

In the first assay the target is T1, hDGAT1 (Homo sapiens, UniProt O75907).
T1 construct: host or cells: Sf9 insect cells (baculovirus); microsomal preparation
T1 sequence (O75907 1-488): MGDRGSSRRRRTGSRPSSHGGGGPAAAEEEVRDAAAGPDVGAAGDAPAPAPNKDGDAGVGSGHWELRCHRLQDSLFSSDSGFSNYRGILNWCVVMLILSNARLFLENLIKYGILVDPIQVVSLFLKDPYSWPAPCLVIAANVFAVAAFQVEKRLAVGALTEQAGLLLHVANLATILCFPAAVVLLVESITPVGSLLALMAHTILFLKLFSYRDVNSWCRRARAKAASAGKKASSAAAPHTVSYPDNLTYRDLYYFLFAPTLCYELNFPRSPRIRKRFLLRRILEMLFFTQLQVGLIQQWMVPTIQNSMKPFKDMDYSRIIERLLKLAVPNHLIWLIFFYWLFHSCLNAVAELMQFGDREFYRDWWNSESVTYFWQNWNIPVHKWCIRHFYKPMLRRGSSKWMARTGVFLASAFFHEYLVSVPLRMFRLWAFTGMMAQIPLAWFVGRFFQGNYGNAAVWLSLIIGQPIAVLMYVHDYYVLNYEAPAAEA
In words: In-vitro DGAT1 assay (hDGAT1 microsomes from Sf9 cells, 14C oleoyl CoA, triglyceride formation). The note with it: At 1 μM. It counts as biochemical. On the procedure: In-vitro Protocol for DGAT1 Assay
Sf9 Culture and Treatment
Sf9 cells were grown in T25 flasks containing Graces's Insect media with 10% FBS with antibiotic (100 units/mL penicillin, 100 μg/mL streptomycin sulphate, 0.25 μg/mL Amptotericin B as Fungizone) grown in a 27° C. incubator:
hDGAT1ORF expression clone (RZPDo839C09146 in pDEST vector) was obtained from RZPD, Germany. hDGAT1 bacmid DNA was obtained by transformation of the hDGAT expression clone into DH10Bac E. coli competent cells. Approximately 1 μg of hDGAT1 bacmid DNA was infected into Sf9 cells with Cellfectin (Invitrogen) reagent. Following infection, Sf9 cells were incubated at 27° C. for 30 minutes. Five hours after infection, the media was replaced with growth media containing antibiotic (100 units/mL penicillin, 100 μg/mL streptomycin sulphate, 0.25 μg/mL Amptotericin B as Fungizone) and incubated at 27° C. for 72 hours. The supernatant containing the virus was centrifuged at 1500×g for 5 minutes, passed through 0.22 μm filter, and subsequently stored at 4° C. The virus was further amplified three more times by re-infection of Sf9 cells and the viral titer was determined by plaque assay.
Preparation of DGAT1 Microsomes from Sf9 Cells
Sf9 cells were seeded in spinner flasks on day 0 at a cell density of 1×10^6 and infected on day 1 with hDGAT1 baculovirus at a multiplicity of infection (MOI) of 5 and a cell density of 2×10^6. On day 3 (or 66-72 hours), cells were harvested and centrifuged at 2500×g for 10 minutes. Pellet was resuspended in lysis buffer (100 mM sucrose, 50 mM KCl, 40 mM KH2PO4, 30 mM EDTA, pH 7.2) and passed through 21-gauge needle approximately 10 times. The mixture was centrifuged at 12,000 rpm in a Sigma 12158-H rotor at 4° C. for 30 minutes. The supernatant was subjected to centrifugation at 35,000 rpm in a Beckman Ti-45 rotor at 4° C. for 1 hour. The resultant pellet containing the microsomes were resuspended overnight in 1 mL of lysis buffer and total protein concentration was estimated using Bradford Reagent. Microsomes were aliquoted and stored at −20° C.
Measurement of DGAT1 Activity
Frozen aliquots of hDGAT1 containing microsomes were thawed (5-10 mg/mL total protein) on ice and diluted to a working stock of 1 mg/mL with DGAT Assay Buffer (DAB). The DGAT reaction assay was performed by following the procedure described in U.S. Pat. No. 6,607,893 with some modifications that are described below.
Preparation of DGAT1 substrate mixture: 1 mL stock solution of DGAT1 substrate mixture contains (i) 5.6 μL of ^14C oleoyl CoA (16.8 nCi) and 35 μL 1,2-dioleoyl-sn-glycerol (409.5 μM) or (ii) 5.6 μL of ^14C oleoyl CoA (16.8 nCi) and 105 μL 1,2-dioleoyl-sn-glycerol (1228.5 μM) or (iii) 5.6 μL of ^14C oleoyl CoA (16.8 nCi) and 140 μL 1,2-dioleoyl-sn-glycerol (1638 μM).
1,2-sn-dioleoylglycerol substrate concentration in the 1 mL stock solution of DGAT1 substrate mixture was varied depending on the microsome concentration used in the assay reaction. 1,2-dioleoyl-sn-glycerol stock (19.5 mM) was prepared by dissolving 25 mg of 1,2-dioleoyl-sn-glycerol (Sigma, US) in 2060 μL of acetone. The assay was performed in duplicates in a reaction volume of 100 μL. The reaction volume consisted of: • (i) 27.5 μL of DGAT assay buffer (0.25M Sucrose, 1 mM EDTA (pH 8.0), 150 mM Tris-HCl, pH 7.4, 1.25 mg/mL, fatty acid free BSA), • (ii) 10 μL of compound, of present invention or standard (dissolved in DMSO and diluted to 10× with DAB and screened at 10 μM, 5 μM and 1 μM), • (iii) 60 μL DGAT1 substrate mixture taken from a 1 mL stock (16.8 nCi of ^14C oleoyl CoA and 409.5 μM or 1228.5 μM or 1638 μM of 1,2-dioleyl-sn-glycerol), • (iv) 2.5-10 μL of 1 mg/mL of microsomes (the amount of assay buffer was varied depending upon the concentration of microsome to make up the volume to 100 μL). Procedure:
The reaction was started by the addition of 2.5-10 μL of 1 mg/mL of microsomes (iv) to a mixture of (i), (ii) and (iii), vortexed and incubated at 37° C. for 10 minutes. […]
Compound `CC(C)C(NC(=O)c1cc(-c2ccc(OCc3ccccc3C(F)(F)F)cc2)no1)C(=O)O` (stereo not drawn) [Example 330, 3-Methyl-2-(3-(4-(2-(trifluoromethyl)benzyloxy)phenyl)isoxazole-5-carboxamido)butanoic acid] returned an inhibition at 1 µM of 0 to 50%. `CC(C)[C@@H](C(=O)O)N(C)C(=O)c1cc(-c2ccc(NC(=O)Nc3ccc(F)cc3)cc2)no1` [Example 308, (S)-2-(3-(4-(3-(4-fluorophenyl)ureido)phenyl)-N-methylisoxazole-5-carboxamido)-3-methylbutanoic acid] registered an inhibition at 1 µM of 50 to 75%. In the case of `COC(=O)[C@H](NC(=O)c1cc(-c2ccc(NC(=O)Nc3ccc(C#N)cc3)cc2)no1)C(C)C` [Example 218, (R)-methyl 2-(3-(4-(3-(4-cyanophenyl)ureido)phenyl)isoxazole-5-carboxamido)-3-methylbutanoate], the inhibition at 1 µM lay in the range of 0 to 50%. `CC(C)C(NC(=O)c1cc(-c2ccc(Oc3nc4ccc(F)cc4s3)cc2)no1)C(=O)O` (stereo not drawn) [Example 335, 2-(3-(4-(6-fluorobenzo[d]thiazol-2-yloxy)phenyl)isoxazole-5-carboxamido)-3-methylbutanoic acid] gave an inhibition at 1 µM of 0 to 50%. Consider `CCCCc1ccc(NC(=O)Nc2ccc(-c3cc(C(=O)NC(C(=O)O)C(C)C)on3)cc2)cc1` (stereo not drawn) [Example 158, 2-(3-(4-(3-(4-butylphenyl)ureido)phenyl)isoxazole-5-carboxamido)-3-methylbutanoic acid], for which the inhibition at 1 µM fell in the range of 75 to 100%.

`COC(=O)[C@H](NC(=O)c1cc(-c2ccc(NC(=O)Nc3ccccc3Cl)cc2)no1)C(C)C` [Example 220, (R)-Methyl 2-(3-(4-(3-(2-chlorophenyl)ureido)phenyl)isoxazole-5-carboxamido)-3-methylbutanoate] registered an inhibition at 1 µM of 0 to 50%. Turning to `CC(C)[C@@H](NC(=O)c1cc(-c2ccc(NC(=O)Nc3ccccc3F)cc2)no1)C(=O)O` [Example 258, (R)-2-(3-(4-(3-(2-Fluorophenyl)ureido)phenyl)isoxazole-5-carboxamido)-3-methylbutanoic acid], the inhibition at 1 µM fell in the range of 50 to 75%. `CC(C)[C@H](NC(=O)c1cc(-c2ccc(NC(=O)Nc3ccc(F)cc3)cc2F)no1)C(=O)O` [Example 146, (S)-2-(3-(2-fluoro-4-(3-(4-fluorophenyl)ureido)phenyl)isoxazole-5-carboxamido)-3-methylbutanoic acid] yielded an inhibition at 1 µM of 50 to 75%. For `CCS/C(=N\[C@@H](C(=O)OC)C(C)C)c1cc(-c2ccc(NC(=O)Nc3ccccc3F)cc2)no1` [Example 224, (R,Z)-Methyl 2-(ethylthio(3-(4-(3-(2-fluorophenyl)ureido)phenyl)isoxazol-5-yl)methyleneamino)-3-methylbutanoate], the inhibition at 1 µM was in the range of 0 to 50%.

Staying with this assay, now noted: At 5 μM.
As to `COC(=O)[C@@H](NC(=O)c1cc(-c2ccc(NC(=O)Nc3ccc(F)cc3)cc2F)no1)C(C)C` [Example 145, (S)-Methyl 2-(3-(2-fluoro-4-(3-(4-fluorophenyl)ureido)phenyl)isoxazole-5-carboxamido)-3-methylbutanoate], the inhibition at 5 µM fell in the range of 50 to 75%. Compound `COC(=O)[C@@H](NC(=O)c1cc(-c2ccc(NC(=O)Nc3cccc(C)c3)cc2)no1)C(C)C` [Example 265, (S)-methyl 3-methyl-2-(3-(4-(3-m-tolylureido)phenyl)isoxazole-5-carboxamido)butanoate] came in with an inhibition at 5 µM of 50 to 75%.

Staying with this assay, now noted: At 10 μM.
Compound `CC(C)CC(NC(=O)c1cc(-c2ccc(NC(=O)NCc3ccccc3)cc2)no1)C(=O)O` (stereo not drawn) [Example 110, 2-(3-(4-(3-Benzylureido)phenyl)isoxazole-5-carboxamido)-4-methyl pentanoic acid] gave an inhibition at 10 µM of 0 to 50%.

For `CCOC(=O)c1cc(-c2cccc(Nc3nc4ccc(F)cc4s3)c2)no1` [Example 20, 3-[3-(6-Fluoro-benzothiazol-2-ylamino)-phenyl]-isoxazole-5-carboxylic acid ethyl ester], the inhibition at 10 µM lay in the range of 0 to 50%. On to `COC(=O)C(NC(=O)c1cc(-c2ccc(NC(=O)Nc3c(F)cccc3F)cc2)no1)C(C)C` (stereo not drawn) [Example 123, Methyl 2-(3-(4-(3-(2,6-difluorophenyl)ureido)phenyl)isoxazole-5-carboxamido)-3-methylbutanoate], for which the inhibition at 10 µM is 50 to 75%. The same measure, in the same setting: the result for `COC(=O)[C@@H](NC(=O)c1c(-c2ccc(Nc3nc4ccc(F)cc4s3)cc2)noc1-c1ccccc1)C(C)C` [Example 68, (S)-2-({3-[4-(6-Fluoro-benzothiazol-2-ylamino)-phenyl]-5-phenyl-isoxazole-4-carbonyl}-amino)-3-methyl-butyric acid methyl ester] reads 0 to 50%; that for `CC(C)C[C@H](NC(=O)c1onc(-c2ccc(Nc3nc4ccc(F)cc4s3)cc2)c1-c1ccccc1)C(=O)O` [Example 95, (S)-2-({3-[4-(6-Fluoro-benzothiazol-2-ylamino)-phenyl]-4-phenyl-isoxazole-5-carbonyl}-amino)-4-methyl-pentanoic acid], 0 to 50%. `CC(C)[C@H](NC(=O)c1cc(-c2ccc(NC(=O)Nc3ccccc3)cc2)no1)C(=O)O` [Example 77, (S)-3-Methyl-2-({3-[4-(3-phenyl-ureido)-phenyl]-isoxazole-5-carbonyl}-amino)-butyric acid] came in with an inhibition at 10 µM of 75 to 100%. In the case of `CC(C)[C@H](NC(=O)c1cc(-c2ccc(NC(=O)Nc3ccc(F)cc3)c(F)c2)no1)C(=O)O` [Example 97], the “% inhibition of hDGAT1” value is “+++ (>75% Inhibition ≦100)”. The compound `CC(C)[C@H](NC(=O)c1onc(-c2ccc(NC(=O)Nc3ccc(F)cc3)cc2)c1-c1ccccc1)C(=O)O` [Example 93, (S)-2-[(3-{4-[3-(4-Fluoro-phenyl)-ureido]-phenyl}-4-phenyl-isoxazole-5-carbonyl)-amino]-3-methyl-butyric acid] came in with an inhibition at 10 µM of 0 to 50%. In turn, `COC(=O)[C@@H](NC(=O)c1cc(-c2cccc(Nc3nc4ccc(F)cc4s3)c2)no1)C(C)C` [Example 22, (S)-2-({3-[3-(6-Fluoro-benzothiazol-2-ylamino)-phenyl]-isoxazole-5-carbonyl}-amino)-3-methyl-butyric acid methyl ester] gave an inhibition at 10 µM of 0 to 50%. With `COC[C@H](NC(=S)c1cc(-c2ccc(Nc3nc4ccc(F)cc4s3)cc2)no1)C(=O)O` [Example 15, (S)-2-({3-[4-(6-Fluoro-benzothiazol-2-ylamino)-phenyl]-isoxazole-5-carbothioyl}-amino)-3-methoxy-propionic acid], the inhibition at 10 µM is 50 to 75%.
